Data set [1] addresses T1, recombinant human transglutaminase 2 (Homo sapiens, UniProt P21980).
T1 construct: purchased Zedira T022
T1 sequence (P21980 1-687): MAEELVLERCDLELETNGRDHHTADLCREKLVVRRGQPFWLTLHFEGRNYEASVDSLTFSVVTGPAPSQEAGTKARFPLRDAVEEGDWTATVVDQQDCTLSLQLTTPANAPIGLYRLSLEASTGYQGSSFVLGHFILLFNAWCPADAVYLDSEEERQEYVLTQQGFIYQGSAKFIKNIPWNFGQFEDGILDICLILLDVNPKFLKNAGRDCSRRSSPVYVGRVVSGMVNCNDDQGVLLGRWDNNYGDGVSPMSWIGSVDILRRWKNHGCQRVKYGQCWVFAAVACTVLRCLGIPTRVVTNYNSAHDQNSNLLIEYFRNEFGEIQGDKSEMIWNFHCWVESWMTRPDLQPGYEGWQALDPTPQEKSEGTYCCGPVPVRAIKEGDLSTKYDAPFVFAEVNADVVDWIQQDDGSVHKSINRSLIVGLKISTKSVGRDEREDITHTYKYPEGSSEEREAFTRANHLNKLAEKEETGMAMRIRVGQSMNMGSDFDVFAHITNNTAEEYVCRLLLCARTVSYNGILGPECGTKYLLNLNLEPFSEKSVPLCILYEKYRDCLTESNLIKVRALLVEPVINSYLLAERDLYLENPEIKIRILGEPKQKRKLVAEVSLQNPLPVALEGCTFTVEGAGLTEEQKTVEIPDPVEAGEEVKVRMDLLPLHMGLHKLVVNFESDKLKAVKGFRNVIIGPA
Description: Transglutaminase assay (dansylcadaverine incorporation into dimethylcasein, DCC-assay). The format is biochemical. The conditions noted are these: recombinant human TG2 10 nM, dansylcadaverine/dimethylcasein, 37° C. As to the method:
For the determination of potency of inhibitors against tissue transglutaminase, the incorporation of dansylcadaverine into dimethylcasein (Zedira product T036, Lorand et al., Anal Biochem, 1971, 44:221-31) was measured using recombinant human transglutaminase 2 (Zedira Product T022).
The tissue transglutaminase is diluted in buffer (50 mM Tris-HCl, 7.5 mM CaCl2, 150 mM NaCl, pH=7.4). The final concentration of TG2 in the assay is 10 nM.
A 10 mM inhibitor stock solution is prepared in DMSO, and from this a serial 1:2-fold dilution series is prepared also in DMSO. Each of the initial dilutions is subsequently diluted 1:50-fold with buffer (50 mM Tris-HCl, 7.5 mM CaCl2, 150 mM NaCl, pH=7.4) to yield the final working dilutions containing 2% (v/v) DMSO.
15 μl of inhibitor working dilution are added per well of a 96 well microtiter plate. As control, 15 μl of a 2% (v/v) DMSO solution prepared using the buffer mentioned above are added per well.
Immediately before starting the assay, 600 μl transglutaminase working solution are added to 11.4 ml assay buffer (50 mM Tris-HCl, 10 mM CaCl2, 10 mM glutathione, 2.5% glycerol, 16.7 μM dansylcadaverine, 4 μM N,N-dimethylcasein, 200 mM NaCl, pH=8.0). 285 μl of this reaction mix are added per well containing the inhibitor.
Increase in fluorescence is measured using λex=330 nm and λem=500 nm at 37° C. for 30 min. A slope of the increase in fluorescence between 20 and 30 min is calculated for determination of the IC50 value (inhibitor concentration at which 50% of the initial activity is blocked).
Analysis of enzymatic activity is performed by calculation of the slope of an increase in fluorescence intensity. IC50 values are calculated by plotting the enzymatic activity (as percentage from control containing 2% DMSO instead of inhibitor) against the inhibitor concentration. IC50 is defined as the inhibitor concentration blocking 50% of initial enzyme activity.

Data set [2] in a line: Log D shake flask method (octanol / PBS pH 7.4, HPLC). The class given is physicochemical. The following applies: octanol/phosphate-buffered saline (PBS); octanol / PBS pH 7.4, shake flask. As to the method:
In order to classify the inventive compounds according to their lipophilicity, Log D values (distribution coefficient) were determined by means of the well-established shake flask method, measuring the partition of a compound between an octanol and phosphate-buffered saline (PBS, pH 7.4) by HPLC.

Data set [3] can be described thus: Caco-2 permeability assay (CacoReady kit). The class given is in vitro ADME. The conditions noted are these: human. As to the method:
Permeability coefficients (Papp values) were obtained from Caco-2 barrier studies predicting oral/intestinal bioavailability of the tested compounds. The assays were performed by using CacoReady™ ready-to-use kits from ReadyCell according to the manufacturers protocol.
(In general: Caco-2 monolayers are a common model of the intestinal barrier.)

Structures are written as SMILES. A value given as a limit tells only on which side of the number the result lay.

For the compound `COC(=O)/C=C/CC[C@H](NC(=O)c1cc(Cl)sc1Cl)C(=O)Nc1cccn(CC(=O)NC2C3CC4CC(C3)CC2C4)c1=O` (stereo partly drawn) [III-13, (S,E)-methyl 6-(2,5-dichlorothiophene-3-carboxamido)-7-(1-(2-(2-adamantylamino)-2-oxoethyl)-2-oxo-1,2-dihydropyridin-3-ylamino)-7-oxohept-2-enoate], the concentration for half-maximal inhibition (IC50) in data set [1] was below 25 nM. This compound also displayed a logD in data set [2] of 3 to 5. In addition, the Papp in data set [3] lay in the range of 1 to 10 ×10⁻⁶ cm/s.
For `COC(=O)/C=C/CC[C@H](NC(=O)c1sc(C(F)(F)F)nc1C)C(=O)Nc1cccn(CC(=O)NC2C3CC4CC(C3)CC2C4)c1=O` (stereo partly drawn) [III-14, (S,E)-methyl 7-(1-(2-(2-adamantylamino)-2-oxoethyl)-2-oxo-1,2-dihydropyridin-3-ylamino)-6-(4-methyl-2-(trifluoromethyl)thiazole-5-carboxamido)-7-oxohept-2-enoate], in that order: below 25 nM, 3 to 5 and 1 to 10 ×10⁻⁶ cm/s.
As to `COC(=O)/C=C/CC[C@H](NC(=O)c1sc(Br)cc1Br)C(=O)Nc1cccn(CC(=O)NC2C3CC4CC(C3)CC2C4)c1=O` (stereo partly drawn) [III-15, (S,E)-methyl 6-(3,5-dibromothiophene-2-carboxamido)-7-(1-(2-(2-adamantylamino)-2-oxoethyl)-2-oxo-1,2-dihydropyridin-3-ylamino)-7-oxohept-2-enoate], in data set [1], the IC50 was below 25 nM. Further, in data set [2], the logD was 3 to 5. Further, in data set [3], the apparent permeability coefficient (Papp) lay within 1 to 10 ×10⁻⁶ cm/s.
For the compound `COC(=O)/C=C/CC[C@H](NC(=O)c1cc(Br)sc1Br)C(=O)Nc1cccn(CC(=O)NC2C3CC4CC(C3)CC2C4)c1=O` (stereo partly drawn) [III-16, (S,E)-methyl 6-(2,5-dibromothiophene-3-carboxamido)-7-(1-(2-(2-adamantylamino)-2-oxoethyl)-2-oxo-1,2-dihydropyridin-3-ylamino)-7-oxohept-2-enoate], the IC50 in data set [1] is below 25 nM. This compound registered a logD in data set [2] of 3 to 5. Further, the apparent permeability (Papp) in data set [3] lay within 1 to 10 ×10⁻⁶ cm/s.
Taken in the same sequence, the figures for `COC(=O)/C=C/CC[C@H](NC(=O)c1csc(Br)c1)C(=O)Nc1cccn(CC(=O)NC2C3CC4CC(C3)CC2C4)c1=O` (stereo partly drawn) [III-17, (S,E)-methyl 6-(5-bromothiophene-3-carboxamido)-7-(1-(2-(2-adamantylamino)-2-oxoethyl)-2-oxo-1,2-dihydropyridin-3-ylamino)-7-oxohept-2-enoate] were below 25 nM, 3 to 5 and below 1 ×10⁻⁶ cm/s.
As to `COC(=O)/C=C/CC[C@H](NC(=O)c1cc(Br)cs1)C(=O)Nc1cccn(CC(=O)NC2C3CC4CC(C3)CC2C4)c1=O` (stereo partly drawn) [III-18, (S,E)-methyl 6-(4-bromothiophene-2-carboxamido)-7-(1-(2-(2-adamantylamino)-2-oxoethyl)-2-oxo-1,2-dihydropyridin-3-ylamino)-7-oxohept-2-enoate], the half-maximal inhibitory concentration (IC50) in data set [1] was below 25 nM. Further, the log distribution coefficient (logD) in data set [2] was in the range of 3 to 5. This compound also registered a Papp in data set [3] below 1 ×10⁻⁶ cm/s.
For `COC(=O)/C=C/CC[C@H](NC(=O)c1cc(Br)c(Br)s1)C(=O)Nc1cccn(CC(=O)NC2C3CC4CC(C3)CC2C4)c1=O` (stereo partly drawn) [III-19, (S,E)-methyl 6-(4,5-dibromothiophene-2-carboxamido)-7-(1-(2-(2-adamantylamino)-2-oxoethyl)-2-oxo-1,2-dihydropyridin-3-ylamino)-7-oxohept-2-enoate], the IC50 in data set [1] was below 25 nM. This compound yielded a logD in data set [2] of 3 to 5. This compound yielded an apparent permeability coefficient (Papp) in data set [3] of 1 to 10 ×10⁻⁶ cm/s.
Taken in the same sequence, the figures for `COC(=O)/C=C/CC[C@H](NC(=O)c1cc(Cl)c(Cl)s1)C(=O)Nc1cccn(CC(=O)NC2C3CC4CC(C3)CC2C4)c1=O` (stereo partly drawn) [III-20, (S,E)-methyl 6-(4,5-dichlorothiophene-2-carboxamido)-7-(1-(2-(2-adamantylamino)-2-oxoethyl)-2-oxo-1,2-dihydropyridin-3-ylamino)-7-oxohept-2-enoate] were below 25 nM, 3 to 5 and 1 to 10 ×10⁻⁶ cm/s.
In the case of `COC(=O)/C=C/CC[C@H](NC(=O)[C@@H]1CCCN1C(C)=O)C(=O)Nc1cccn(CC(=O)NC2C3CC4CC(C3)CC2C4)c1=O` (stereo partly drawn) [III-21, (S,E)-methyl 6-((S)-1-acetylpyrrolidine-2-carboxamido)-7-(1-(2-(2-adamantylamino)-2-oxoethyl)-2-oxo-1,2-dihydropyridin-3-ylamino)-7-oxohept-2-enoate], the IC50 in data set [1] is below 25 nM. The same compound returned a logD in data set [2] of 1 to 3. The Papp in data set [3] was below 1 ×10⁻⁶ cm/s.
Taken in the same sequence, the figures for `COC(=O)/C=C/CC[C@H](NC(=O)c1cnnn1C)C(=O)Nc1cccn(CC(=O)NC2C3CC4CC(C3)CC2C4)c1=O` (stereo partly drawn) [III-22, (S,E)-methyl 7-(1-(2-(2-adamantylamino)-2-oxoethyl)-2-oxo-1,2-dihydropyridin-3-ylamino)-6-(1-methyl-1H-1,2,3-triazole-5-carboxamido)-7-oxohept-2-enoate] were below 25 nM, 1 to 3 and 1 to 10 ×10⁻⁶ cm/s.
Taken in the same sequence, the figures for `COC(=O)/C=C/CC[C@H](NC(=O)c1nn[nH]n1)C(=O)Nc1cccn(CC(=O)NC2C3CC4CC(C3)CC2C4)c1=O` (stereo partly drawn) [III-23, (S,E)-methyl 7-(1-(2-(2-adamantylamino)-2-oxoethyl)-2-oxo-1,2-dihydropyridin-3-ylamino)-7-oxo-6-(2H-tetrazole-5-carboxamido)hept-2-enoate] were 25 to 250 nM, 1 to 3 and 1 to 10 ×10⁻⁶ cm/s.
For `COC(=O)/C=C/CC[C@H](NC(=O)c1cnccn1)C(=O)Nc1cccn(CC(=O)NC2C3CC4CC(C3)CC2C4)c1=O` (stereo partly drawn) [III-24, (S,E)-methyl 7-(1-(2-(2-adamantylamino)-2-oxoethyl)-2-oxo-1,2-dihydropyridin-3-ylamino)-7-oxo-6-(pyrazine-2-carboxamido)hept-2-enoate], in that order: 25 to 250 nM, 1 to 3 and below 1 ×10⁻⁶ cm/s.
Consider `COC(=O)/C=C/CC[C@H](NC(=O)[C@@H]1CCCN1C)C(=O)Nc1cccn(CC(=O)NC2C3CC4CC(C3)CC2C4)c1=O` (stereo partly drawn) [III-25, (S,E)-methyl 7-(1-(2-(2-adamantylamino)-2-oxoethyl)-2-oxo-1,2-dihydropyridin-3-ylamino)-6-((S)-1-methylpyrrolidine-2-carboxamido)-7-oxohept-2-enoate], for which the IC50 in data set [1] is 25 to 250 nM. Besides, the logD in data set [2] lay within 3 to 5. Moreover, the Papp in data set [3] is below 1 ×10⁻⁶ cm/s.
For `COC(=O)/C=C/CC[C@H](NC(=O)[C@H]1CCNC1)C(=O)Nc1cccn(CC(=O)NC2C3CC4CC(C3)CC2C4)c1=O` (stereo partly drawn) [III-26, (S,E)-methyl 7-(1-(2-(2-adamantylamino)-2-oxoethyl)-2-oxo-1,2-dihydropyridin-3-ylamino)-7-oxo-6-((S)-pyrrolidine-3-carboxamido)hept-2-enoate], in that order: 25 to 250 nM, 1 to 3 and 1 to 10 ×10⁻⁶ cm/s.
Taken in the same sequence, the figures for `COC(=O)/C=C/CC[C@H](NC(=O)[C@@H]1C[C@H](Br)CN1)C(=O)Nc1cccn(CC(=O)NC2C3CC4CC(C3)CC2C4)c1=O` (stereo partly drawn) [III-27, (S,E)-methyl 6-((2S,4S)-4-bromopyrrolidine-2-carboxamido)-7-(1-(2-(2-adamantylamino)-2-oxoethyl)-2-oxo-1,2-dihydropyridin-3-ylamino)-7-oxohept-2-enoate] were 25 to 250 nM, 3 to 5 and below 1 ×10⁻⁶ cm/s.

In general, IC50 refers to the concentration that gives 50% inhibition. The term logD denotes the decadic logarithm of the distribution of all forms, ionised or not, between an organic phase and buffer at a given pH. A high value points to higher lipophilicity. In general, Papp refers to a coefficient for how fast a substance crosses the barrier. The low end stands for poor permeation, the high end for ready permeation.

The values are drawn from patent US20240317708A1, “INHIBITORS OF TRANSGLUTAMINASES” (ZEDIRA GMBH, priority 2021, published 2024).
